# Measured values: ChEMBL document CHEMBL1671849, “Novel, Broad Spectrum Anti-Cancer Agents Containing the Tricyclic 5:7:5-Fused Diimidazodiazepine Ring System” (ACS Med Chem Lett, 2011)
# Assays:
# [1] = tested on: A549; assay: Cytotoxicity against human A549 cells after 72 hrs by WST1 assay; type: functional, cell-based; settings: A549, 72 h
# [2] = tested on: NCI-H460; assay: Cytotoxicity against human H460 cells after 72 hrs by WST1 assay; type: functional, cell-based; settings: NCI-H460, 72 h
# [3] = tested on: MCF7; assay: Cytotoxicity against human MCF7 cells after 72 hrs by WST1 assay; type: functional, cell-based; settings: MCF7, 72 h
# [4] = tested on: MDA-MB-231; assay: Cytotoxicity against human MDA-MB-231 cells after 72 hrs by WST1 assay; type: functional, cell-based; settings: MDA-MB-231, 72 h
# [5] = tested on: OVCAR-3; assay: Cytotoxicity against human OVCAR3 cells after 72 hrs by WST1 assay; type: functional, cell-based; settings: OVCAR-3, 72 h
# [6] = tested on: PC-3; assay: Cytotoxicity against human PC3 cells after 72 hrs by WST1 assay; type: functional, cell-based; settings: PC-3, 72 h
# [7] = tested on: MCF7; assay: Cell cycle arrest in human MCF7 cells assessed as accumulation at G1 phase at 3 uM after 24 hrs by flow cytometry relative to control; type: functional
# [8] = tested on: MCF7; assay: Cell cycle arrest in human MCF7 cells assessed as accumulation at S phase at 3 uM after 24 hrs by flow cytometry relative to control; type: functional
# [9] = tested on: MCF7; assay: Cell cycle arrest in human MCF7 cells assessed as accumulation at G2/M phase at 3 uM after 24 hrs by flow cytometry relative to control; type: functional
# [10] = tested on: Mus musculus; assay: Toxicity in SCID mouse at up to 500 mg/kg administered twice week for 7 weeks; type: organism-based; set-up: dose 500 mg/kg; settings: in vivo, 1176 h
# [11] = tested on: Mus musculus; assay: Toxicity in SCID mouse assessed as histopathological examination of kidney at up to 500 mg/kg administered twice week for 7 weeks; type: organism-based; set-up: dose 500 mg/kg; settings: in vivo, 1176 h
# [12] = tested on: Mus musculus; assay: Toxicity in SCID mouse assessed as histopathological examination of spleen at up to 500 mg/kg administered twice week for 7 weeks; type: organism-based; set-up: dose 500 mg/kg; settings: in vivo, 1176 h
# [13] = tested on: Mus musculus; assay: Toxicity in SCID mouse assessed as histopathological examination of liver at up to 500 mg/kg administered twice week for 7 weeks; type: organism-based; set-up: dose 500 mg/kg; settings: in vivo, 1176 h
# [14] = tested on: Mus musculus; assay: Toxicity in SCID mouse assessed as histopathological examination of cerebellum-brain at up to 500 mg/kg administered twice week for 7 weeks; type: organism-based; set-up: dose 500 mg/kg; settings: in vivo, 1176 h
# [15] = tested on: Mus musculus; assay: Toxicity in SCID mouse assessed as blood analysis at up to 500 mg/kg administered twice week for 7 weeks; type: organism-based; set-up: dose 500 mg/kg; settings: in vivo, 1176 h
Compound,IC50 [1],IC50 [2],IC50 [3],IC50 [4],IC50 [5],IC50 [6],Activity [7],Activity [8],Activity [9],Activity [10],Activity [11],Activity [12],Activity [13],Activity [14],Activity [15]
COc1ccc(Cn2cnc3c4nc(=O)n(Cc5cccc(OC)c5)c-4ncnc32)cc1,1.5 µM,1.6 µM,6 µM,2.6 µM,5.1 µM,2.5 µM,–,–,–,–,–,–,–,–,–
COc1ccc(Cn2cnc3c4nc(=O)n(Cc5ccccc5)c-4ncnc32)cc1,1.7 µM,1.8 µM,7 µM,2.3 µM,5 µM,4.05 µM,–,–,–,–,–,–,–,–,–
COc1ccc(Cn2c3nc(-c4ccc([N+](=O)[O-])cc4)nc4c(ncn4Cc4ccc(OC)cc4)c-3nc2=O)cc1,2.7 µM,2.5 µM,5.7 µM,3.3 µM,5.2 µM,4.3 µM,–,–,–,–,–,–,–,–,–
COc1ccc(Cn2c3ncnc4c(ncn4Cc4ccc(OC)cc4)c-3nc2=O)cc1,2.5 µM,2.8 µM,7.5 µM,4.01 µM,14.5 µM,4.8 µM,79.15%,5.87%,14.5%,Non-toxic,Non-toxic,Non-toxic,Non-toxic,Non-toxic,Non-toxic
COc1ccc(Cn2cnc3c4nc(=O)n(Cc5ccc(F)cc5)c-4ncnc32)cc1,1.6 µM,1.5 µM,4 µM,2.5 µM,9 µM,2.1 µM,–,–,–,–,–,–,–,–,–
